Reference: US20230111310A1, “CARBOXYLIC ACID DERIVATIVE-SUBSTITUTED IMINO ARYL COMPOUND, PREPARATION METHOD THEREFOR, HERBICIDAL COMPOSITION AND USE THEREOF” (Qingdao Kingagroot Chemical Compound Co., Ltd., priority 2020, published 2023)

Columns and labels:
Type in all cases: in vivo
[1] = tested on: Echinochloa caudata Roshev.; test: Composition activity test, post-emergence foliage spray; details: B 7.5 g a.i./ha
Experimental: (§1) are as follows, and the others were purchased from reagent companies. The technical materials were all dissolved in acetone and diluted with an aqueous solution containing 0.1% emulsifier Tween-80. The dilution is performed as required.
(§2) Weeds were cultivated by a pot culture method. […] Full and uniform weed seeds were selected, soaked in warm water at 25° C. for 6 hours, and germinated in a 28° C. biochemical incubator (darkness). The weed seeds that had just germinated were evenly placed on the surface of the soil and then covered with 0.5-1 cm soil according to the sizes of seeds.
(§3) The culture was carried out in a controllable sunlight greenhouse at 20 to 30° C., in natural light, and relative humidity of 57% to 72%.
(§4) 3 pots with 20 weed seeds per pot were treated in one treatment with 4 replications per treatment.
(§5) The agents were used for only once in the experiment. In the stage of weeds with 1.5-2 leaves, the weeds were thinned out to maintain 10 weeds per pot and 30 weeds for each treatment, then continued to be cultured to Conyza Canadensis 10 cm in height, other weeds 3-4 leaves stage and treated.
(§6) The well-cultured weeds were evenly placed on a platform with an area of 0.5 m^2, and a solution of agents was sprayed on the stems and leaves thereof by the 3WP-2000-type walking spray tower at a dosage of 450 kg/ha and at a spray pressure of 0.3 MPa. After all the solution was sprayed, the valve was closed. After 30 seconds, the door of the spray tower was opened, and the nutritional bowl was taken out. Then the valve was opened, and the spray tube was cleaned by spraying 50 ml of water. After the treatment, the weeds were routinely cultured in a greenhouse.
(§7) A method for investigating absolute number was employed, wherein whole seedlings of survival weeds were cut off with a blade along the soil surface, and the fresh weight of the weeds was weighed with an analytical balance. For dead weeds, the fresh weight thereof was zero.
(§8) The investigation was performed after 21 days of the treatment for only once.
(§9) An optimum ratio of the two active ingredients was determined by the actual control effect, characteristics of herbicides, and balance of a corresponding formula. Wherein, in the formula, X represented the fresh weight inhibition rate of the active ingredient A in a dosage of P, and Y represented the fresh weight inhibition rate of the active ingredient B in a dosage of Q. The statistical results were shown in the table 6.

Leptochloa chinensis = test: Weed control effect evaluation in rice field; details: rice field pot, 30 g/ha, 14 days after treatment
Text: (§10) The activity level criteria for plant damage (i.e., growth control rate) are as follows:
(§11) Rice field soil was loaded into a 1/1,000,000 ha pot. The seeds of Echinochloa crusgalli. Scirpus juncoides. Bidens tripartita L., Monochoria vaginalis, and Leptochloa chinensis were sowed and gently covered with soil, then left to stand still in greenhouse in the state of 0.5-1 cm of water storage. The tuber of Sagittaria trifolia was planted in the next day or 2 days later. It was kept at 3-4 cm of water storage thereafter. The weeds were treated by dripping the WP or SC water diluents prepared according to the common preparation method of the compounds of the present invention with pipette homogeneously to achieve specified effective amount when Echinochloa crusgalli. Scirpus juncoides, Bidens tripartita L., Monochoria vaginalis, and Leptochloa chinensis reached 0.5 leaf stage and Sagittaria trifolia reached the time point of primary leaf stage.
(§12) The fertility condition of Echinochloa crusgalli. Scirpus juncoides. Bidens tripartita L., Monochoria vaginalis, Leptochloa chinensis and Sagittaria trifolia 14 days after the treatment of the compound of the invention and the fertility condition of rice 21 days after the treatment of the compound of the invention respectively with the naked eye. Evaluate the weed control effect with the above activity standard level. Many compounds show excellent activity and selectivity.

Monochoria vaginalis = test: Weed control effect evaluation in rice field; details: rice field pot, 30 g/ha, 14 days after treatment
Text: as §10, §11, §12

Scirpus juncoides = test: Weed control effect evaluation in rice field; details: rice field pot, 30 g/ha, 14 days after treatment
Text: as §10, §11, §12

Rice = test: Transplanted rice safety evaluation; details: transplanted japonica rice, 30 g/ha, 21 days after treatment
Experimental: as §10
In addition, the rice field soil that loaded into the 1/1,000,000 ha pot was leveled to keep water storage at 3-4 cm depth. The 5 leaf stage rice (japonica rice) was transplanted at 3 cm of transplanting depth the next day. The compound of the present invention was treated by the same way after 5 days of transplantation.
as §12

Malachium aquaticum = test: Composition activity test, post-emergence foliage spray; details: B 7.5 g a.i./ha
Experimental: as §1, §2, §3, §4, §5, §6, §7, §8, §9

Abutilon theophrasti [2] = test: Weeding effect in post-emergence stage; details: level of fresh weight growth control rate
Procedure, shortened: (§13)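 Weeds were treated post-emergence at 2-3 leaves with compound doses from 7.5 up to 500 g/ha, formulated in acetone–Tween 80 with methyl oleate synergist. Efficacy was assessed as growth control after 3 weeks.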

Alopecurus japonicus = test: Weeding effect in post-emergence stage; details: level of fresh weight growth control rate
Procedure, shortened: as §13

Digitaria sanguinalis = test: Weeding effect in post-emergence stage; details: level of fresh weight growth control rate
Procedure, shortened: as §13

Eleusine indica = test: Weeding effect in post-emergence stage; details: for Weeding effect in post-emergence stage, Eleusine indica: level of fresh weight growth control rate
Procedure, shortened: as §13

Setaria viridis [3] = test: Weeding effect in post-emergence stage; details: level of fresh weight growth control rate
Procedure, shortened: as §13

Amaranthus retroflexus [4] = test: Weeding effect in post-emergence stage; details: 7.5 g/ha, 3 weeks
Procedure, shortened: as §13

Echinochloa crusgalli = test: Weeding effect in post-emergence stage; details: for Weeding effect in post-emergence stage, Echinochloa crusgalli: level of fresh weight growth control rate
Procedure, shortened: as §13

Abutilon theophrasti [5] = test: Weeding effect in pre-emergence stage; details: 4 weeks
Procedure, shortened: (§14)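 Test compounds were dissolved in acetone with tween 80, diluted with water and sprayed right after sowing, with seeds covered by 0.5-2 cm of soil. Rates were 500 to 7.5 g/ha. Growth control was scored against activity-level criteria after 4 weeks in the greenhouse.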

Amaranthus retroflexus [6] = test: Weeding effect in pre-emergence stage; details: 4 weeks
Procedure, shortened: as §14

Capsella bursa-pastoris = test: Weeding effect in pre-emergence stage; details: 4 weeks
Procedure, shortened: as §14

Descurainia sophia = test: Weeding effect in pre-emergence stage; details: 4 weeks
Procedure, shortened: as §14

Setaria viridis [7] = test: Weeding effect in pre-emergence stage; details: 4 weeks
Procedure, shortened: as §14

Veronica didyma Tenore = test: Weeding effect in pre-emergence stage; details: 4 weeks
Procedure, shortened: as §14

Peanut = test: Pre-emergence stage, crop selectivity; details: 4 weeks
Procedure, shortened: as §14

Soybeans = test: Pre-emergence stage, crop selectivity; details: 4 weeks
Procedure, shortened: as §14

corn = test: Pre-emergence stage, crop selectivity; details: 4 weeks
Procedure, shortened: as §14

cotton = test: Pre-emergence stage, crop selectivity; details: 4 weeks
Procedure, shortened: as §14

[8] = post-emergence, 7.5 g/ha, 3 weeks

## CCC[S@@+]([O-])c1c(C(F)(F)F)ccc(C(=O)Nc2nnc(C)o2)c1F [Cpd B1]
[1]
  Control effect (%) of B applied alone (B): 47.8%

## CCOC(=O)c1cnn(C)c1S(=O)(=O)NC(=O)Nc1nc(OC)cc(OC)n1 [pyrazosulfuron-ethyl, reference compound]
Leptochloa chinensis
  activity level (weed control effect) Leptochloa chinensis: 2 (Level 2: growth control rate is greater than or equal to 20% and less than 40%)
Monochoria vaginalis
  activity level (weed control effect) Monochoria vaginalis: 2 (Level 2: growth control rate is greater than or equal to 20% and less than 40%)
Scirpus juncoides
  activity level (weed control effect) Scirpus juncoides: 1 (Level 1: growth control rate is greater than or equal to 5% and less than 20%)
Rice
  plant damage level Rice: 1 (Level 1: growth control rate is greater than or equal to 5% and less than 20%)
Malachium aquaticum
  Control effect (%) of B applied alone (B): 35.7%

## COC(=O)[C@@H](C)O/N=C/c1cc(-n2c(=O)cc(C(F)(F)F)n(C)c2=O)c(F)cc1Cl [194(R)]
Abutilon theophrasti [2]; Dose 7.5 g/ha
  Weeding effect in post-emergence stage, Abutilon theophrasti: 5 (Level 5: growth control rate is above 85%)
Abutilon theophrasti [2]; Dose 15 g/ha
  Weeding effect in post-emergence stage, Abutilon theophrasti: 5 (Level 5: growth control rate is above 85%)
Alopecurus japonicus; Dose 7.5 g/ha
  Weeding effect in post-emergence stage, Alopecurus japonicus: 5 (Level 5: growth control rate is above 85%)
Alopecurus japonicus; Dose 15 g/ha
  Weeding effect in post-emergence stage, Alopecurus japonicus: 5 (Level 5: growth control rate is above 85%)
Digitaria sanguinalis; Dose 7.5 g/ha
  Weeding effect in post-emergence stage, Digitaria sanguinalis: 5 (Level 5: growth control rate is above 85%)
Digitaria sanguinalis; Dose 15 g/ha
  Weeding effect in post-emergence stage, Digitaria sanguinalis: 5 (Level 5: growth control rate is above 85%)
Eleusine indica; Dose 7.5 g/ha
  Weeding effect in post-emergence stage, Eleusine indica: 5 (Level 5: growth control rate is above 85%)
Eleusine indica; Dose 15 g/ha
  Weeding effect in post-emergence stage, Eleusine indica: 5 (Level 5: growth control rate is above 85%)
Eleusine indica; [8]
  activity level (growth control rate) Eleusine indica: 5 (Level 5: growth control rate is above 85%)
Setaria viridis [3]; Dose 7.5 g/ha
  Weeding effect in post-emergence stage, Setaria viridis: 5 (Level 5: growth control rate is above 85%)
Setaria viridis [3]; Dose 15 g/ha
  Weeding effect in post-emergence stage, Setaria viridis: 5 (Level 5: growth control rate is above 85%)
Amaranthus retroflexus [4]
  activity level (growth control rate) Amaranthus retroflexus: 5 (Level 5: growth control rate is above 85%)
Echinochloa crusgalli; Dose 7.5 g/ha
  Weeding effect in post-emergence stage, Echinochloa crusgalli: 5 (Level 5: growth control rate is above 85%)
Echinochloa crusgalli; Dose 15 g/ha
  Weeding effect in post-emergence stage, Echinochloa crusgalli: 5 (Level 5: growth control rate is above 85%)
Echinochloa crusgalli; [8]
  activity level (growth control rate) Echinochloa crusgalli: 5 (Level 5: growth control rate is above 85%)
Abutilon theophrasti [5]; 15 g/ha
  activity level (growth control rate) Abutilon theophrasti: 5 (Level 5: growth control rate is above 85%)
Abutilon theophrasti [5]; 30 g/ha
  activity level (growth control rate) Abutilon theophrasti: 5 (Level 5: growth control rate is above 85%)
Abutilon theophrasti [5]; 60 g/ha
  activity level (growth control rate) Abutilon theophrasti: 5 (Level 5: growth control rate is above 85%)
Amaranthus retroflexus [6]; 15 g/ha
  activity level (growth control rate) Amaranthus retroflexus: 5 (Level 5: growth control rate is above 85%)
Amaranthus retroflexus [6]; 30 g/ha
  activity level (growth control rate) Amaranthus retroflexus: 5 (Level 5: growth control rate is above 85%)
Amaranthus retroflexus [6]; 60 g/ha
  activity level (growth control rate) Amaranthus retroflexus: 5 (Level 5: growth control rate is above 85%)
Capsella bursa-pastoris; 15 g/ha
  activity level (growth control rate) Capsella bursa-pastoris: 5 (Level 5: growth control rate is above 85%)
Capsella bursa-pastoris; 30 g/ha
  activity level (growth control rate) Capsella bursa-pastoris: 5 (Level 5: growth control rate is above 85%)
Capsella bursa-pastoris; 60 g/ha
  activity level (growth control rate) Capsella bursa-pastoris: 5 (Level 5: growth control rate is above 85%)
Descurainia sophia; 15 g/ha
  activity level (growth control rate) Descurainia sophia: 5 (Level 5: growth control rate is above 85%)
Descurainia sophia; 30 g/ha
  activity level (growth control rate) Descurainia sophia: 5 (Level 5: growth control rate is above 85%)
Descurainia sophia; 60 g/ha
  activity level (growth control rate) Descurainia sophia: 5 (Level 5: growth control rate is above 85%)
Setaria viridis [7]; 15 g/ha
  activity level (growth control rate) Setaria viridis: 5 (Level 5: growth control rate is above 85%)
Setaria viridis [7]; 30 g/ha
  activity level (growth control rate) Setaria viridis: 5 (Level 5: growth control rate is above 85%)
Setaria viridis [7]; 60 g/ha
  activity level (growth control rate) Setaria viridis: 5 (Level 5: growth control rate is above 85%)
Veronica didyma Tenore; 15 g/ha
  activity level (growth control rate) Veronica didyma Tenore: 5 (Level 5: growth control rate is above 85%)
Veronica didyma Tenore; 30 g/ha
  activity level (growth control rate) Veronica didyma Tenore: 5 (Level 5: growth control rate is above 85%)
Veronica didyma Tenore; 60 g/ha
  activity level (growth control rate) Veronica didyma Tenore: 5 (Level 5: growth control rate is above 85%)
Peanut; 15 g/ha
  plant damage level Peanut: 0 (Level 0: growth control rate is less than 5%)
Peanut; 30 g/ha
  plant damage level Peanut: 0 (Level 0: growth control rate is less than 5%)
Peanut; 60 g/ha
  plant damage level Peanut: 0 (Level 0: growth control rate is less than 5%)
Soybeans; 15 g/ha
  plant damage level Soybeans: 0 (Level 0: growth control rate is less than 5%)
Soybeans; 30 g/ha
  plant damage level Soybeans: 0 (Level 0: growth control rate is less than 5%)
Soybeans; 60 g/ha
  plant damage level Soybeans: 0 (Level 0: growth control rate is less than 5%)
corn; 15 g/ha
  plant damage level Corn: 0 (Level 0: growth control rate is less than 5%)
corn; 30 g/ha
  plant damage level Corn: 0 (Level 0: growth control rate is less than 5%)
corn; 60 g/ha
  plant damage level Corn: 0 (Level 0: growth control rate is less than 5%)
cotton; 15 g/ha
  plant damage level Cotton: 0 (Level 0: growth control rate is less than 5%)
cotton; 30 g/ha
  plant damage level Cotton: 0 (Level 0: growth control rate is less than 5%)
cotton; 60 g/ha
  plant damage level Cotton: 0 (Level 0: growth control rate is less than 5%)
Leptochloa chinensis
  activity level (weed control effect) Leptochloa chinensis: 5 (Level 5: growth control rate is above 85%)
Monochoria vaginalis
  activity level (weed control effect) Monochoria vaginalis: 5 (Level 5: growth control rate is above 85%)
Scirpus juncoides
  activity level (weed control effect) Scirpus juncoides: 5 (Level 5: growth control rate is above 85%)
Rice
  plant damage level Rice: 0 (Level 0: growth control rate is less than 5%)

## Cc1c(C(=O)c2cnn(C)c2O)ccc(S(C)(=O)=O)c1C1=NOCC1 [topramezone]
[1]
  Control effect (%) of B applied alone (B): 38.5%
